Literature values as cited in patent US5110799A, “Antiherpetic agents” (Merck & Co., Inc., priority 1989, dated 1992).

Target: ribonucleotide reductase enzyme of herpes simplex virus (Human herpesvirus 1, UniProt P08543)
Conditions: in vitro; Dutia et al., Cohen et al., U.S. Pat. No. 4,795,740

ribonucleotide reductase enzyme of herpes simplex virus, sequence (P08543 whole entry): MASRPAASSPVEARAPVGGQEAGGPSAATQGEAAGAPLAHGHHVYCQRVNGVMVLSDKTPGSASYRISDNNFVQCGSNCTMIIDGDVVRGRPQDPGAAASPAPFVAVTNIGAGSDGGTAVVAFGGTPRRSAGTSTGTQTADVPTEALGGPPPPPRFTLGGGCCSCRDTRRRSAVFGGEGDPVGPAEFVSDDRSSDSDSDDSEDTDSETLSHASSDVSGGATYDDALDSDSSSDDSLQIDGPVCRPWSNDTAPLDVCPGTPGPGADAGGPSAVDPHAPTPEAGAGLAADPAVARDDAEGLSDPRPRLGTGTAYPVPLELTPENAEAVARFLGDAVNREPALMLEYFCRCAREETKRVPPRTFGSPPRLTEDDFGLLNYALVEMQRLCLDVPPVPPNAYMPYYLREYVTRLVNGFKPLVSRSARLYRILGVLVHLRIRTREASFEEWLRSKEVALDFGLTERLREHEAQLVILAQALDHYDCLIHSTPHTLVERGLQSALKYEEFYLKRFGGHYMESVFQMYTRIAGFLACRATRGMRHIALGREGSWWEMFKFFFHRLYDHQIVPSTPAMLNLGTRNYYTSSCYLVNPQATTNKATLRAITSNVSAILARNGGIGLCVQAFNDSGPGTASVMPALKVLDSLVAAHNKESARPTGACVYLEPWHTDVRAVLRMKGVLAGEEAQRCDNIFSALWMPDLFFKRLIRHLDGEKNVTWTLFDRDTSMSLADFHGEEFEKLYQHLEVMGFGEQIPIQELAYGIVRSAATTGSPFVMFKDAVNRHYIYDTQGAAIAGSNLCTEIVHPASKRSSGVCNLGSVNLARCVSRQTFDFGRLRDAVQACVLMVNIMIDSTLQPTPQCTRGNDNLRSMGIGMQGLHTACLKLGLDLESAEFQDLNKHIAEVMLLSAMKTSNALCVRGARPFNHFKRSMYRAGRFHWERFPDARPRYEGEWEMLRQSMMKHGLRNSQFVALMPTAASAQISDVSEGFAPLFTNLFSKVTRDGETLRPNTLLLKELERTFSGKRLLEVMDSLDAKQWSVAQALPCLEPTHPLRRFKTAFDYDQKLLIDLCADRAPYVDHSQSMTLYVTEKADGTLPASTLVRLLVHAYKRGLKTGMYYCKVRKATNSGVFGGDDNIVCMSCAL

Tyr Ala Gly Ala Val Val Asn Asp Leu
inhibition of the activity of HSV ribonucleotide reductase: inhibited in vitro the activity of this enzyme

Tyr gly Ala Val Val Asn Asp Leu
inhibition of the activity of HSV ribonucleotide reductase: inhibited in vitro the activity of this enzyme
